Assay results taken from EP2649091B1, “IMMUNE RESTRICTED PEPTIDES WITH INCREASED EFFICACY” (Stichting Het Nederlands Kanker Instituut, priority 2010, dated 2012).

Assays:
[1] = system: SVYDFFVWL (TRP-2 180-188) reactive T cells; test: T cell activation time course assay, IFNγ production (FACS), TRP-2 epitope; details: for % CD8+ T cells producing IFN-γ peptide concentrations in picomolar 24H 0.5 / Geometric mean IFN-γ in arbitrary fluorescence units peptide concentrations in picomolar 24H 0.5 / % CD8+ T cells producing IFN-γ peptide concentrations in picomolar 48H 0.5 / Geometric mean IFN-γ in arbitrary fluorescence units peptide concentrations in picomolar 48H 0.5: peptide 0.5 pM; for % CD8+ T cells producing IFN-γ peptide concentrations in picomolar 24H 50 / % CD8+ T cells producing IFN-γ peptide concentrations in picomolar 48H 50 / Geometric mean IFN-γ in arbitrary fluorescence units peptide concentrations in picomolar 24H 50 / Geometric mean IFN-γ in arbitrary fluorescence units peptide concentrations in picomolar 48H 50: peptide 50 pM; for % CD8+ T cells producing IFN-γ peptide concentrations in picomolar 24H 5·10^3 / Geometric mean IFN-γ in arbitrary fluorescence units peptide concentrations in picomolar 24H 5·10^3 / % CD8+ T cells producing IFN-γ peptide concentrations in picomolar 48H 5·10^3 / Geometric mean IFN-γ in arbitrary fluorescence units peptide concentrations in picomolar 48H 5·10^3: peptide 5·10^3 pM
HLA-A0201 = HLA-A0201 (Homo sapiens, UniProt P04439, D140Y/D185E/D98H/E176V/E277Q/G131W/G231S/I119V/I121R/I166T/I218V/L300P/L318F/N151K/N90K/P208A/P217A/Q86G/Q94H/R138H/R169H/T345S); assay type: binding

| Substance | % CD8+ T cells producing IFN-γ peptide concentrations in picomolar 24H 0.5 [1] [%] | Geometric mean IFN-γ in arbitrary fluorescence units peptide concentrations in picomolar 24H 0.5 [1] | % CD8+ T cells producing IFN-γ peptide concentrations in picomolar 24H 50 [1] [%] | % CD8+ T cells producing IFN-γ peptide concentrations in picomolar 24H 5·10^3 [1] [%] | Geometric mean IFN-γ in arbitrary fluorescence units peptide concentrations in picomolar 24H 5·10^3 [1] | % CD8+ T cells producing IFN-γ peptide concentrations in picomolar 48H 0.5 [1] [%] | Geometric mean IFN-γ in arbitrary fluorescence units peptide concentrations in picomolar 48H 0.5 [1] | % CD8+ T cells producing IFN-γ peptide concentrations in picomolar 48H 50 [1] [%] | % CD8+ T cells producing IFN-γ peptide concentrations in picomolar 48H 5·10^3 [1] [%] | Geometric mean IFN-γ in arbitrary fluorescence units peptide concentrations in picomolar 48H 5·10^3 [1] | % inhibition at T=4H and T=24H FP 4h (HLA-A0201) [%] | % inhibition at T=4H and T=24H FP 24h (HLA-A0201) [%] | Geometric mean IFN-γ in arbitrary fluorescence units peptide concentrations in picomolar 24H 50 [1] | Geometric mean IFN-γ in arbitrary fluorescence units peptide concentrations in picomolar 48H 50 [1] |
| --- | --- | --- | --- | --- | --- | --- | --- | --- | --- | --- | --- | --- | --- | --- |
| [am-phg][NVA]YDFFVWL | 1 | 59 arbitrary fluorescence units | 26 | 34 | 326 arbitrary fluorescence units | 1 | 78 arbitrary fluorescence units | 18 | 40 | 255 arbitrary fluorescence units | 79 | 77 |  |  |
| [PHG][NVA]YDFFVW[ALG] | 0 | 84 arbitrary fluorescence units | 6 | 35 | 185 arbitrary fluorescence units | 1 | 64 arbitrary fluorescence units | 1 | 22 | 142 arbitrary fluorescence units | 76 | 73 | 71 arbitrary fluorescence units | 64 arbitrary fluorescence units |
| [PHG][NVA]YDFFVW[PRG] | 1 | 89 arbitrary fluorescence units | 6 | 33 | 183 arbitrary fluorescence units | 0 | 66 arbitrary fluorescence units | 1 | 21 | 139 arbitrary fluorescence units | 83 | 78 | 73 arbitrary fluorescence units | 61 arbitrary fluorescence units |
| [am-phg][CpALA]YDFFVW[PRG] | 1 | 94 arbitrary fluorescence units | 1 | 14 | 95 arbitrary fluorescence units | 0 | 76 arbitrary fluorescence units | 0 | 4 | 76 arbitrary fluorescence units | 80 | 80 | 69 arbitrary fluorescence units | 66 arbitrary fluorescence units |
| [PHG][NVA]YDFFVWL | 0 | 76 arbitrary fluorescence units | 15 | 29 | 263 arbitrary fluorescence units | 0 | 85 arbitrary fluorescence units | 2 | 30 | 188 arbitrary fluorescence units | 79 | 76 | 94 arbitrary fluorescence units |  |
